Source: the NIST ThermoML archive (doi:10.1016/j.fluid.2017.03.011)
± gives the expanded uncertainty stated by the source.

Key:
[1] = an = ratio of the nth substance listed; conditions: 101 kPa, Liquid, a2 = 3; for electrical conductivity: Alternating current cell with electrodes; for viscosity: Falling or rolling sphere viscometry; for speed of sound: Sing-around technique in a fixed-path interferometer; for mass density: Vibrating tube method
[2] = refractive index (Na D-line) (dimensionless); an = ratio of the nth substance listed; conditions: 101 kPa, Liquid, Standard Abbe refractometry, a2 = 3

## CCC[N+](CCC)(CCC)Cc1ccccc1.[Cl-] [benzyltripropylammonium chloride] + OCCO
[1]; 293.15 K
  electrical conductivity: 0.0734 ± 0.003 S/m
  viscosity: 327.9 ± 21 mPa·s
  speed of sound: 1762.4 ± 2.2 m/s
  mass density: 1063.63 ± 0.97 kg/m3
[1]; 298.15 K
  electrical conductivity: 0.0883 ± 0.0036 S/m
  viscosity: 229.2 ± 12 mPa·s
  speed of sound: 1746.5 ± 2.2 m/s
  mass density: 1060.58 ± 0.96 kg/m3
[1]; 303.15 K
  electrical conductivity: 0.105 ± 0.0042 S/m
  viscosity: 164.6 ± 6.9 mPa·s
  speed of sound: 1731 ± 2.2 m/s
  mass density: 1057.52 ± 0.96 kg/m3
[1]; 308.15 K
  electrical conductivity: 0.125 ± 0.005 S/m
  viscosity: 121 ± 3.8 mPa·s
  speed of sound: 1715.9 ± 2.2 m/s
  mass density: 1054.44 ± 0.95 kg/m3
[1]; 313.15 K
  electrical conductivity: 0.146 ± 0.0059 S/m
  viscosity: 90.8 ± 2.1 mPa·s
  speed of sound: 1701.1 ± 2.2 m/s
  mass density: 1051.35 ± 0.94 kg/m3
[1]; 318.15 K
  electrical conductivity: 0.17 ± 0.0068 S/m
  viscosity: 70.6 ± 1.1 mPa·s
  speed of sound: 1686.4 ± 2.2 m/s
  mass density: 1048.27 ± 0.94 kg/m3
[1]; 323.15 K
  electrical conductivity: 0.2 ± 0.008 S/m
  viscosity: 54.4 ± 0.6 mPa·s
  speed of sound: 1671.9 ± 2.2 m/s
  mass density: 1045.19 ± 0.93 kg/m3
[1]; 328.15 K
  electrical conductivity: 0.228 ± 0.0091 S/m
  viscosity: 42.1 ± 0.6 mPa·s
  speed of sound: 1657.5 ± 2.1 m/s
  mass density: 1042.11 ± 0.92 kg/m3
[1]; 333.15 K
  electrical conductivity: 0.26 ± 0.01 S/m
  viscosity: 33.5 ± 0.4 mPa·s
  speed of sound: 1643.3 ± 2.1 m/s
  mass density: 1039.03 ± 0.92 kg/m3
[1]; 338.15 K
  electrical conductivity: 0.292 ± 0.012 S/m
  viscosity: 27 ± 0.4 mPa·s
  speed of sound: 1629.2 ± 2.1 m/s
  mass density: 1035.95 ± 0.91 kg/m3
[1]; 343.15 K
  electrical conductivity: 0.328 ± 0.013 S/m
  viscosity: 22.2 ± 0.3 mPa·s
  speed of sound: 1615.7 ± 2.1 m/s
  mass density: 1032.88 ± 0.9 kg/m3
[2]; 293.15 K
  refractive index: 1.4981 ± 0.0008
[2]; 298.15 K
  refractive index: 1.4965 ± 0.0008
[2]; 303.15 K
  refractive index: 1.4952 ± 0.0008
[2]; 308.15 K
  refractive index: 1.4939 ± 0.0008
[2]; 313.15 K
  refractive index: 1.4924 ± 0.0008
[2]; 318.15 K
  refractive index: 1.4911 ± 0.0008
[2]; 323.15 K
  refractive index: 1.4895 ± 0.0008
[2]; 328.15 K
  refractive index: 1.4879 ± 0.0008
[2]; 333.15 K
  refractive index: 1.4864 ± 0.0008
[2]; 338.15 K
  refractive index: 1.4849 ± 0.0008
[2]; 343.15 K
  refractive index: 1.4831 ± 0.0008

## CCC[N+](CCC)(CCC)Cc1ccccc1.[Cl-] [benzyltripropylammonium chloride] + CC(O)C(=O)O
[1]; 293.15 K
  electrical conductivity: 0.0011 ± 0.0001 S/m
  speed of sound: 1658.2 ± 6.5 m/s
  mass density: 1120.61 ± 12 kg/m3
[1]; 298.15 K
  electrical conductivity: 0.0018 ± 0.0001 S/m
  speed of sound: 1640.8 ± 6.5 m/s
  mass density: 1117.05 ± 12 kg/m3
[1]; 303.15 K
  electrical conductivity: 0.003 ± 0.0001 S/m
  viscosity: 2276.7 ± 300 mPa·s
  speed of sound: 1624.7 ± 6.5 m/s
  mass density: 1113.49 ± 12 kg/m3
[1]; 308.15 K
  electrical conductivity: 0.0047 ± 0.0002 S/m
  viscosity: 1288.3 ± 150 mPa·s
  speed of sound: 1607.9 ± 6.5 m/s
  mass density: 1109.92 ± 12 kg/m3
[1]; 313.15 K
  electrical conductivity: 0.0071 ± 0.0003 S/m
  viscosity: 780.5 ± 77 mPa·s
  speed of sound: 1592.5 ± 6.5 m/s
  mass density: 1106.36 ± 12 kg/m3
[1]; 318.15 K
  electrical conductivity: 0.0103 ± 0.0004 S/m
  viscosity: 489.2 ± 41 mPa·s
  speed of sound: 1577.6 ± 6.5 m/s
  mass density: 1102.71 ± 11 kg/m3
[1]; 323.15 K
  electrical conductivity: 0.0146 ± 0.0006 S/m
  viscosity: 319 ± 22 mPa·s
  speed of sound: 1563.7 ± 6.5 m/s
  mass density: 1099.19 ± 11 kg/m3
[1]; 328.15 K
  electrical conductivity: 0.0201 ± 0.0008 S/m
  viscosity: 215.6 ± 13 mPa·s
  speed of sound: 1550.1 ± 6.5 m/s
  mass density: 1095.66 ± 11 kg/m3
[1]; 333.15 K
  electrical conductivity: 0.0267 ± 0.0011 S/m
  viscosity: 150.6 ± 7.5 mPa·s
  speed of sound: 1537.3 ± 6.5 m/s
  mass density: 1092.1 ± 11 kg/m3
[1]; 338.15 K
  electrical conductivity: 0.035 ± 0.0014 S/m
  viscosity: 108.5 ± 4.6 mPa·s
  speed of sound: 1525.1 ± 6.5 m/s
  mass density: 1088.54 ± 11 kg/m3
[1]; 343.15 K
  electrical conductivity: 0.0443 ± 0.0018 S/m
  viscosity: 81.3 ± 3 mPa·s
  speed of sound: 1513.6 ± 6.5 m/s
  mass density: 1084.99 ± 11 kg/m3
[2]; 293.15 K
  refractive index: 1.4944 ± 0.0015
[2]; 298.15 K
  refractive index: 1.4926 ± 0.0015
[2]; 303.15 K
  refractive index: 1.4908 ± 0.0015
[2]; 308.15 K
  refractive index: 1.4892 ± 0.0015
[2]; 313.15 K
  refractive index: 1.4876 ± 0.0015
[2]; 318.15 K
  refractive index: 1.4858 ± 0.0015
[2]; 323.15 K
  refractive index: 1.4844 ± 0.0015
[2]; 328.15 K
  refractive index: 1.4824 ± 0.0015
[2]; 333.15 K
  refractive index: 1.4811 ± 0.0015
[2]; 338.15 K
  refractive index: 1.4791 ± 0.0015
[2]; 343.15 K
  refractive index: 1.4778 ± 0.0015
